In patent US20260294846A1, “COMPOSITIONS AND METHODS FOR TREATING VULVAR AND VAGINAL ATROPHY (VVA)” (Daré Bioscience, Inc., priority 2023, published 2026):
“Also recorded” adds a separate entry of the source.

Experiments:
[1] = more potent than tamoxifen; cited from earlier work
[2] = Systemic plasma pharmacokinetics of tamoxifen and metabolites after intravaginal DARE-VVA1; design: species or system human (women); details: human, in vivo, 20 mg
Text: In each treatment group, participants will have serial blood sampling for PK analysis, with venous samples drawn from an indwelling line. Dense sampling will be performed following the Day 1 and Day 56 administrations of a tamoxifen vaginal insert; trough samples will be collected prior to dosing on Days 4, 7, 10, 18, 28, and 42, and a final sample will be collected at follow-up on Day 63. Samples will be analyzed using validated methods to determine plasma concentrations of tamoxifen and 3 metabolites: 4-hydroxytamoxifen, N-desmethyl-tamoxifen, and N-desmethyl-4-hydroxytamoxifen (endoxifen). […]
Samples will be analyzed using validated methods to determine plasma concentrations of tamoxifen and 3 metabolites: 4-hydroxytamoxifen, N-desmethyltamoxifen, and N-desmethyl-4-hydroxytamoxifen (endoxifen).
The PK characterization of tamoxifen concentrations for each dose to be profiled will use noncompartmental analysis (NCA). […] Standard PK parameters assessed will include measures of the extent of absorption using estimates of the area under the plasma concentration-time curve (AUC), the maximum observed drug concentration (Cmax), and the time to reach maximum drug concentration (Tmax). […]

vagina = test: Vaginal pH; type: in vivo, human (women)
Text: Estrogenic effect measurements will include vaginal cytology (maturation index; percentage of basal and superficial cells) and vaginal pH at screening and baseline, every 2 weeks during treatment, and 1 week after treatment.
Vaginal swabs for determination of pH will be collected in accordance with the schedule of events (Table 4). The pH of vaginal secretions will be measured using pH paper.
Local estrogenic effect measurements included obtaining vaginal epithelial cells from the lateral vaginal sidewall and determining the VMI. The VMI is determined by categorizing the ratio (proportion in 100 cells) of the three types of vaginal epithelial cell types (parabasal, intermediate and superficial). A total VMI score was calculated as: % superficial cells+(0.5 x% intermediate cells)+(0 x % parabasal cells). The VMI and vaginal pH were measured at screening and baseline, and subsequently every 2 weeks during treatment and 1 week after treatment.

[3] = tested on: female New Zealand White rabbits (vagina, uterus, ovary); test: Study 3015-012: 12-week intravaginal toxicity of tamoxifen in rabbits; type: in vivo, rabbit (New Zealand White)
Text: (§1) Tamoxifen is a selective estrogen receptor modulator (SERM) which has species and tissue specific estrogen agonist and antagonist properties. Given orally in women, tamoxifen has estrogen antagonist activity in breast tissue and estrogen agonist effects in the endometrium and vagina. When administered vaginally in women, there is reduced systemic exposure leading to reduced systemic side effects. The objective of this pre-clinical study was to test the safety, pharmacokinetics (PK) and toxicity of vaginal tamoxifen over a 3 and 9 month treatment period in female New Zealand White rabbits.
(§2) All animal studies were conducted under IACUC approvals. In study 3015-012, at Charles River Labs (Mattawan, MI, USA), 45 female rabbits were randomly assigned to either sham (saline), placebo, or 5, 10 or 20 mg/kg/dose of vaginal tamoxifen. Investigational product (IP) was administered intravaginally once daily for 14 days, then twice weekly for up to 10 weeks with necropsy at 12-weeks. In study 858-0032-TX, conducted at WuXi AppTec (Suzhou, Jiangsu, China), 40 female rabbits were randomly assigned to sham (saline), placebo, or 10 or 30 mg/kg/dose of vaginal tamoxifen. IP was administered daily for 14 days and then twice weekly. An interim necropsy was performed at 26-weeks and then at 39-weeks.

[4] = tested on: female New Zealand White rabbits (vagina, uterus, ovary); test: Study 858-0032-TX: 26/39-week intravaginal toxicity of tamoxifen in rabbits; type: in vivo, rabbit (New Zealand White)
Text: as §1, §2

[5] = cited from earlier work
endometrium = details: cited from earlier work
[6] = 20 mg/kg/day, 12 weeks, cranial and mid vagina
[7] = 20 mg/kg/day, 12 weeks, intravaginal
[8] = postmenopausal women, daily oral tamoxifen at least 4 years

For `CC/C(=C(\c1ccc(O)cc1)c1ccc(OCCNC)cc1)c1ccccc1` [endoxifen, N-desmethyl-4-hydroxytamoxifen], which “Potency relative to tamoxifen” value [1] is on record?
The value was “approximately 100 ×”.

Which “Potency relative to tamoxifen” value [1] does the source give for 4-hydroxytamoxifen [4-OHT] here?
Its value is “approximately 100 ×”.

For `CC/C(=C(\c1ccccc1)c1ccc(OCCN(C)C)cc1)c1ccccc1` [tamoxifen, 1-(p-dimethylamino-ethoxphenyl)-2-ethyl-1,2-diphenylethylene], which Cmax at 240 h ([2]; Day 10, read-out: Single maximum plasma tamoxifen concentration) is on record?
The Cmax at 240 h was 12 ng/mL.

What about the concentration at 240 h ([2]; Day 10 trough, read-out: Plasma tamoxifen, median) of the same molecule?
Its concentration at 240 h is 8.29 ng/mL.

What about the “Improvement in vaginal pH” value (vagina; 10 mg and 20 mg, 8-week treatment) of the same molecule?
Its value is “most improvement in vaginal pH”.

And the “Change in vaginal pH, baseline to end of treatment” value (vagina; all active doses combined, Day 56)?
Its value is “statistically significant decreases in vaginal pH”.

What about the “Median end of treatment vaginal pH levels, range” value (vagina; end of treatment) of the same molecule?
The value was 5.0-5.3.

What about the Adverse effects ([3]; 20 mg dose, 12 weeks) of the same molecule?
The Adverse effects was “no observed adverse effects”.

What about the “Vagina microscopy, atrophy” value [3, 6] of the same molecule?
The value was “minimal to mild diffuse atrophy; also recorded: diffuse vaginal atrophy”.

What about the “Vagina microscopy, inflammatory cell infiltration” value [3, 6] of the same molecule?
The value was “increased incidence and/or severity of minimal to mild mixed inflammatory cell infiltration; also recorded: increased incidence of vaginal mixed inflammatory cell infiltrates”.

What about the Ovary microscopy [3, 7] of the same molecule?
The Ovary microscopy was “atrophy of interstitial glands; also recorded: increased incidence of ovarian interstitial gland atrophy with decreased weights”.

What about the Paired ovary weights [3, 7] of the same molecule?
The Paired ovary weights was “decreases in the mean weights (absolute and relative to terminal body weight)”.

What about the Uterus/cervix weights [3, 7] of the same molecule?
Its Uterus/cervix weights is “decreases in the mean weights (absolute and relative to terminal body weight); also recorded: decreased uterine weights”.

And the “Vaginal epithelial degeneration, erosion, ulceration” value ([3]; 12-week necropsy)?
The value was “no evidence of epithelial degeneration, erosion, or ulceration”.

And the Other parameters ([3]; 12 weeks)?
Its Other parameters is “no observed tamoxifen-related adverse effects on any of the other parameters”.

What about the Adverse effects ([4]; 30 mg dose, 39 weeks) of the same molecule?
The Adverse effects was “no observed adverse effects”.

What about the “Females affected by uterine atrophy” value ([4]; 30 mg/day, 26 weeks) of the same molecule?
The value was “Four of five”.

What about the Ovary microscopy ([4]; 30 mg/kg/day, 26 weeks) of the same molecule?
Its Ovary microscopy is “moderate to marked atrophy of the interstitial cells in the ovary”.

What about the “Uterine and ovarian weights” value ([4]; 30 mg/kg/day, 26 weeks) of the same molecule?
Its value is “Product-related uterine and ovarian weight decreases”.

What about the Uterus microscopy ([4]; 30 mg/kg/day, 26 weeks) of the same molecule?
The Uterus microscopy was “mild to moderate uterine atrophy”.

What about the Macroscopic changes ([4]; 26 weeks, any treatment group) of the same molecule?
The Macroscopic changes was “no IP related macroscopic changes”.

And the “Systemic toxicity clinical findings” value ([4]; two studies, up to 39 weeks)?
Its value is “no observed clinical findings which would be suspicious for systemic toxicity”.

And the “Uterine or endometrial hyperplasia” value ([4]; two studies, up to 39 weeks)?
Its value is “no evidence of uterine or endometrial hyperplasia”.

What about the “Local genital tract findings” value ([4]; vagina, uterus, ovary, up to 39 weeks) of the same molecule?
Its value is “mostly organ atrophy”.

What about the “Steady-state plasma concentration of NDT, range” value ([5]; 3 months oral daily 20 mg tamoxifen) of the same molecule?
Its value is 152 to 706 ng/mL.

And the “Mean steady-state concentration of tamoxifen” value ([5]; oral 20 mg dose)?
Its value is 122 ng/mL.

What about the “Steady-state concentration of tamoxifen, range” value ([5]; oral 20 mg dose) of the same molecule?
The value was 71-183.

And the “Peak plasma concentration of NDT, range” value ([5]; oral tamoxifen)?
Its value is 10 to 20 ng/mL.

What about the “Maximum plasma concentration of tamoxifen, range” value ([5]; single oral dose 20 mg) of the same molecule?
Its value is 35 to 45 ng/mL.

And the “Mean maximum plasma concentration of tamoxifen” value ([5]; single oral dose 20 mg)?
The value was 40 ng/mL.

What about the “Endometrial risk relative to general postmenopausal population” value (endometrium; [8]) of the same molecule?
The value was “about two to three times that of the general postmenopausal population”.

And the “Risk of complex hyperplasia” value (endometrium; [8])?
The value was 3%.

And the “Risk of endometrial carcinoma” value (endometrium; [8])?
Its value is 2%.

And the “Risk of simple hyperplasia” value (endometrium; [8])?
Its value is “approximately 12%”.

What about the “Risk of endometrial hyperplasia” value (endometrium; premenopausal women, oral tamoxifen) of the same molecule?
The value was “no different than in the general premenopausal population”.

With `CC/C(=C(\c1ccccc1)c1ccc(OCCNC)cc1)c1ccccc1` [NDT, N-desmethyltamoxifen] as the molecule, how does the “Systemic potency relative to tamoxifen” value [1] read?
The value was “approximately 1.7 ×”.
